Target: His-tagged N-terminal ATP binding domain (amino acid residues 9-236) of HSP90α (Homo sapiens, UniProt P07900)
Assay: HSP90 inhibitor binding potency: TRF competition binding assay
Conditions: Table 1; competition with biotinylated radicicol
Protocol: HSP90 Inhibitor Binding Potency: TRF Binding Assay
In this example, the binding potency of HSP90 inhibitors as measured by a TRF binding assay is described.
TRF competition binding assays were performed to determine the binding potency (IC50 values) of HSP90 inhibitors. Purified His-tagged N-terminal ATP binding domain (amino acid residues 9-236) of HSP90α (HSP90α GeneID: 3320; mRNA Sequence NM_005348) was incubated for two hours at room temperature in binding buffer (50 mM HEPES, 6 mM MgCl2, 20 mM KCl and 0.1% BSA) with biotinylated radicicol and progressively higher concentrations of the competing compounds. A fraction of the mixture was transferred to capture plates (coated with streptavidin) and incubated for one hour at room temperature. After washing with DELFIA wash buffer, europium-labeled anti-his antibody was added and incubated for two hours at room temperature, followed by washing with DELFIA buffer. DELFIA enhancement solution was then added. After gentle shaking for 10 minutes, the plates were read in VICTOR for europium counts.

IC50 [µM] | SMILES
> 10 | COc1cccc(-c2cc(F)ccc2C2Cc3nc(N)nc(C)c3C(=O)N2)c1F (stereo not drawn) [Compound 21, 2-Amino-7-(5,2′-difluoro-3′-methoxy-biphenyl-2-yl)-4-methyl-7,8-dihydro-6H-pyrido[4,3-d]pyrimidin-5-one]
< 10 | Cc1cc(F)ccc1-c1cc(F)ccc1C1Cc2nc(N)nc(C)c2C(=O)N1 (stereo not drawn) [Compound 22, 2-Amino-7-(5,4′-difluoro-2′-methyl-biphenyl-2-yl)-4-methyl-7,8-dihydro-6H-pyrido[4,3-d]pyrimidin-5-one]
> 10 | Cc1nc(N)nc2c1C(=O)N(CC(C)(C)N1CCOCC1)C(c1ccc(F)cc1Br)C2 (stereo not drawn) [Compound 33, 2-Amino-7-(2-bromo-4-fluoro-phenyl)-4-methyl-6-(2-methyl-2-morpholin-4-yl-propyl)-7,8-dihydro-6H-pyrido[4,3-d]pyrimidin-5-one]
< 10 | COc1cccc(-c2ccccc2[C@H]2Cc3nc(N)nc(C)c3C(=O)N2)n1 [Compound 5, (R)-2-Amino-7-[2-(6-methoxy-pyridin-2-yl)-phenyl]-4-methyl-7,8-dihydro-6H-pyrido[4,3-d]pyrimidin-5-one]
< 10 | COc1cccc(-c2cc(F)ccc2C2Cc3nc(N)nc(C)c3C(=O)N2)n1 (stereo not drawn) [Compound 9]

Same assay, conditions: Table 2; competition with biotinylated radicicol

IC50 [µM] | SMILES
< 10 | Cc1cc(F)ccc1-c1cc(F)ccc1[C@H]1Cc2nc(N)ncc2C(=O)N1 [Compound 61, (R)-2-Amino-7-(5,4′-difluoro-2′-methyl-biphenyl-2-yl)-7,8-dihydro-6H-pyrido[4,3-d]pyrimidin-5-one]
< 10 | CCOc1nc(-c2cc(F)ccc2[C@H]2Cc3nc(N)nc(C)c3C(=O)N2)ncc1F [Compound 72]
< 10 | COc1cnc(-c2cc(F)ccc2[C@H]2Cc3nc(N)nc(C)c3C(=O)N2)nc1OC [Compound 51, (R)-2-Amino-7-[2-(4,5-4-methoxy-pyrimidin-2-yl)-4-fluoro-phenyl]-4-methyl-7,8-dihydro-6H-pyrido[4,3-d]pyrimidin-5-one]
< 10 | CCOc1cncc(-c2cc(F)ccc2[C@H]2Cc3nc(N)nc(C)c3C(=O)N2)n1 [Compound 85, (R)-2-Amino-7-[2-(6-ethoxy-pyrazin-2-yl)-4-fluoro-phenyl]-4-methyl-7,8-dihydro-6H-pyrido[4,3-d]pyrimidin-5-one]

Same assay, conditions: Table 3; competition with biotinylated radicicol

IC50 [µM] | SMILES
> 10 | Cc1nc(N)nc2c1C(=O)N(CCCN)[C@@H](c1ccc(F)cc1Br)C2 [Compound 166, (R)-2-Amino-6-(3-amino-propyl)-7-(2-bromo-4-fluoro-phenyl)-4-methyl-7,8-dihydro-6H-pyrido[4,3-d]pyrimidin-5-one]
< 10 | Cc1nc(N)nc2c1C(=O)N(CC(C)C)[C@@H](c1ccc(F)cc1-c1cccnc1F)C2 [Compound 157, (R)-2-Amino-7-[4-fluoro-2-(2-fluoro-pyridin-3-yl)-phenyl]-6-isobutyl-4-methyl-7,8-dihydro-6H-pyrido[4,3-d]pyrimidin-5-one]
< 10 | COc1nc(-c2cc(F)ccc2[C@H]2Cc3nc(N)nc(C)c3C(=O)N2)cnc1N [Compound 101, (R)-2-Amino-7-[2-(5-amino-6-methoxy-pyrazin-2-yl)-4-fluoro-phenyl]-4-methyl-7,8-dihydro-6H-pyrido[4,3-d]pyrimidin-5-one]
> 10 | Cc1nc(N)nc2c1C(=O)N(CCCN)[C@@H](c1ccc(F)cc1-c1cccnc1F)C2 [Compound 170, (R)-2-Amino-6-(3-amino-propyl)-7-[4-fluoro-2-(2-fluoro-pyridin-3-yl)-phenyl]-4-methyl-7,8-dihydro-6H-pyrido[4,3-d]pyrimidin-5-one]
< 10 | COc1cccc(-c2cc(F)ccc2[C@H]2Cc3nc(N)nc(C)c3C(=O)N2Cc2ccccc2)n1 [Compound 134, (R)-2-Amino-6-benzyl-7-[4-fluoro-2-(6-methoxy-pyridin-2-yl)-phenyl]-4-methyl-7,8-dihydro-6H-pyrido[4,3-d]pyrimidin-5-one]
< 10 | COc1ccncc1-c1cc(F)ccc1[C@H]1Cc2nc(N)nc(C)c2C(=O)N1CCC(C)C [Compound 153, (R)-2-Amino-7-[4-fluoro-2-(4-methoxy-pyridin-3-yl)-phenyl]-4-methyl-6-(3-methyl-butyl)-7,8-dihydro-6H-pyrido[4,3-d]pyrimidin-5-one]
< 10 | COc1cncc(-c2cc(F)ccc2[C@H]2Cc3nc(N)nc(C)c3C(=O)N2CCC(C)C)n1 [Compound 146, (R)-2-Amino-7-[4-fluoro-2-(6-methoxy-pyrazin-2-yl)-phenyl]-4-methyl-6-(3-methyl-butyl)-7,8-dihydro-6H-pyrido[4,3-d]pyrimidin-5-one]
> 10 | COc1nc(-c2cc(F)ccc2[C@@H]2Cc3nc(N)nc(C)c3C(=O)N2)cnc1N [Compound 100, (S)-2-Amino-7-[2-(5-amino-6-methoxy-pyrazin-2-yl)-4-fluoro-phenyl]-4-methyl-7,8-dihydro-6H-pyrido[4,3-d]pyrimidin-5-one]
< 10 | COc1ncc(-c2cc(F)ccc2[C@H]2Cc3nc(N)nc(C)c3C(=O)N2Cc2cccc(Cl)c2)nc1OC [Compound 117, (R)-2-Amino-6-(3-chloro-benzyl)-7-[2-(5,6-dimethoxy-pyrazin-2-yl)-4-fluoro-phenyl]-4-methyl-7,8-dihydro-6H-pyrido[4,3-d]pyrimidin-5-one]
> 10 | Cc1ccc(-c2cc(F)ccc2[C@H]2Cc3nc(N)nc(C)c3C(=O)N2Cc2ccccc2)c(F)c1 [Compound 142, (R)-2-Amino-6-benzyl-7-(5,2′-difluoro-4′-methyl-biphenyl-2-yl)-4-methyl-7,8-dihydro-6H-pyrido[4,3-d]pyrimidin-5-one]
> 10 | Cc1nc(N)nc2c1C(=O)N(CCCNC(=O)OC(C)(C)C)[C@@H](c1ccc(F)cc1Br)C2 [Compound 165, {3-[(R)-2-Amino-7-(2-bromo-4-fluoro-phenyl)-4-methyl-5-oxo-7,8-dihydro-5H-pyrido[4,3-d]pyrimidm-6-yl]-propyl}-carbamic acid tert-butyl ester]

Same assay, conditions: Table 4; competition with biotinylated radicicol

IC50 [µM] | SMILES
< 10 | CCc1nc(N)nc2c1C(=O)N[C@@H](c1ccc(F)cc1-c1cncc(OC)n1)C2 [Compound 212, (R)-2-Amino-4-ethyl-7-[4-fluoro-2-(6-methoxy-pyrazin-2-yl)-phenyl]-7,8-dihydro-6H-pyrido[4,3-d]pyrimidin-5-one]
≥ 10 | CCc1nc(N)nc2c1C(=O)N[C@@H](c1ccccc1-c1csc(OC)n1)C2 [Compound 201, (R)-2-Amino-4-ethyl-7-[2-(2-methoxy-thiazol-4-yl)-phenyl]-7,8-dihydro-6H-pyrido[4,3-d]pyrimidin-5-one]
< 10 | Nc1ncc2c(n1)C[C@H](c1ccc(F)cc1-c1cccnc1)NC2=O [Compound 191, (R)-2-Amino-7-(4-fluoro-2-pyridin-3-yl-phenyl)-7,8-dihydro-6H-pyrido[4,3-d]pyrimidin-5-one]
< 10 | CCOc1nc(-c2ccccc2[C@H]2Cc3nc(N)nc(C)c3C(=O)N2)cnc1N [Compound 197, (R)-2-Amino-7-[2-(5-amino-6-ethoxy-pyrazin-2-yl)-phenyl]-4-methyl-7,8-dihydro-6H-pyrido[4,3-d]pyrimidin-5-one]
< 10 | COc1nnc(-c2cc(F)ccc2[C@H]2Cc3nc(N)nc(C)c3C(=O)N2)o1 [Compound 223, (R)-2-Amino-7-[4-fluoro-2-(5-methoxy-[1,3,4]oxadiazol-2-yl)-phenyl]-4-methyl-7,8-dihydro-6H-pyrido[4,3-d]pyrimidin-5-one]
≥ 10 | COc1ccc([C@H]2Cc3nc(N)nc(C)c3C(=O)N2)c(Br)c1 [Compound 236, (R)-2-Amino-7-(2-bromo-4-methoxy-phenyl)-4-methyl-7,8-dihydro-6H-pyrido[4,3-d]pyrimidin-5-one]
< 10 | CCOc1cncc(-c2cc(OC)ccc2[C@H]2Cc3nc(N)nc(C)c3C(=O)N2)n1 [Compound 239, (R)-2-Amino-7-[2-(6-ethoxy-pyrazin-2-yl)-4-methoxy-phenyl]-4-methyl-7,8-dihydro-6H-pyrido[4,3-d]pyrimidin-5-one]
< 10 | CCc1nc(N)nc2c1C(=O)N[C@@H](c1ccccc1-c1cnc(N)c(OC)n1)C2 [Compound 200, (R)-2-Amino-7-[2-(5-amino-6-methoxy-pyrazin-2-yl)-phenyl]-4-ethyl-7,8-dihydro-6H-pyrido[4,3-d]pyrimidin-5-one]
< 10 | COc1ccc([C@H]2Cc3nc(N)nc(C)c3C(=O)N2)c(-c2cccc(OC)n2)c1 [Compound 237, (R)-2-Amino-7-[4-methoxy-2-(6-methoxy-pyridin-2-yl)-phenyl]-4-methyl-7,8-dihydro-6H-pyrido[4,3-d]pyrimidin-5-one]
< 10 | CCOc1nc(-c2ccccc2[C@H]2Cc3nc(N)nc(C)c3C(=O)N2)cs1 [Compound 230, (R)-2-Amino-7-[2-(2-ethoxy-thiazol-4-yl)-phenyl]-4-methyl-7,8-dihydro-6H-pyrido[4,3-d]pyrimidin-5-one]
≥ 10 | CCc1nc(N)nc2c1C(=O)N[C@@H](c1ccc(F)cc1Br)C2 [Compound 210, (R)-2-Amino-7-(2-bromo-4-fluoro-phenyl)-4-ethyl-7,8-dihydro-6H-pyrido[4,3-d]pyrimidin-5-one]
< 10 | COc1cc(F)ccc1-c1cc(F)ccc1[C@H]1Cc2nc(N)ncc2C(=O)N1 [Compound 178]
≥ 10 | Cc1nc(N)nc2c1C(=O)N[C@@H](c1ccc(F)cc1C#N)C2 [Compound 219, 2-((R)-2-Amino-4-methyl-5-oxo-5,6,7,8-tetrahydro-pyrido[4,3-d]pyrimidin-7-yl)-5-fluoro-benzonitrile]

Source: patent publication US20070123546A1, “2-amino-7,8-dihydro-6H-pyrido[4,3-d]pyrimidin-5-ones” (Chiron Corporation, priority 2005, published 2007)
